Assay results taken from the supplement of paper PMC11061612.

Assays:
Assay in all cases: combination Emax (second highest fraction inhibited in the dose matrix, 72 h); higher = more inhibition; extreme values may be limits of the assay
[1] = test system: SUP-B15 (B-Lymphoblastic Leukemia)
Outline: (§1)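 Cell lines grown in DMEM/F12 or RPMI with 10% FBS were plated in 1536-well plates and held 24 hours at 37°C, 5% CO2 before 72 hours of exposure to two-drug dose matrices, with DMSO typically at 0.2%. CellTiter-Glo 2.0 luminescence gave viability, which was converted to inhibition. Vehicle wells were set to 0 and blank wells to 1. Combination Emax is the second-highest inhibition in the matrix, and Bliss excess is the observed combination effect minus the expected EA + EB − EA·EB, where EA and EB are the single-agent effects.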

[2] = test system: KMS-12-BM (Plasma Cell Myeloma)
Outline: as §1

[3] = test system: KU812 (Chronic Myelogenous Leukemia)
Outline: as §1

[4] = test system: DAN-G (Pancreatic Carcinoma)
Outline: as §1

[5] = test system: NCCIT (Other Solid Carcinomas)
Outline: as §1

[6] = test system: CW-2 (Colorectal Carcinoma)
Outline: as §1

[7] = test system: NCI-H661 (Non-Small Cell Lung Carcinoma)
Outline: as §1

[8] = test system: RPMI-8226 (Plasma Cell Myeloma)
Outline: as §1

[9] = test system: KYSE-270 (Esophageal Squamous Cell Carcinoma)
Outline: as §1

[10] = test system: KY821 (Acute Myeloid Leukemia)
Outline: as §1

[11] = test system: HCC1419 (Breast Carcinoma)
Outline: as §1

[12] = test system: H9 (T-Cell Non-Hodgkin's Lymphoma)
Outline: as §1

[13] = test system: ESO51 (Esophageal Adenocarcinoma)
Outline: as §1

RD (Rhabdomyosarcoma) = test system: RD (Rhabdomyosarcoma)
Outline: as §1

[14] = test system: SU-DHL-5 (B-Cell Non-Hodgkin's Lymphoma)
Outline: as §1

[15] = test system: SNU-398 (Hepatocellular Carcinoma)
Outline: as §1

[16] = test system: MOG-G-CCM (Low Grade Glioma)
Outline: as §1

[17] = test system: KP-3 (Pancreatic Carcinoma)
Outline: as §1

[18] = test system: NCI-H3122 (Lung Adenocarcinoma)
Outline: as §1

[19] = test system: SK-GT-4 (Esophageal Adenocarcinoma)
Outline: as §1

Row | SMILES | combination Emax [1] | combination Emax [2] | combination Emax [3] | combination Emax [4] | combination Emax [5] | combination Emax [6] | combination Emax [7] | combination Emax [8] | combination Emax [9] | combination Emax [10] | combination Emax [11] | combination Emax [12] | combination Emax [13] | combination Emax (RD (Rhabdomyosarcoma)) | combination Emax [14] | combination Emax [15] | combination Emax [16] | combination Emax [17] | combination Emax [18] | combination Emax [19]
1 | CC1(C)CCC(CN2CCN(c3ccc(C(=O)NS(=O)(=O)c4ccc(NCC5CCOCC5)c([N+](=O)[O-])c4)c(Oc4cnc5[nH]ccc5c4)c3)CC2)=C(c2ccc(Cl)cc2)C1 [Venetoclax] + CCN(CCO)CCCOc1ccc2c(Nc3cc(CC(=O)Nc4cccc(F)c4)[nH]n3)ncnc2c1 [AZD2811] (first compound max 1 µM, 7x7, partner max 1 µM) | 1 | 1 | 0.65 | 0.21 | 0.282 | 0.177 | 0.143 | 0.481 | 0.716 | 0.978 | 0.212 | 0.888 | 0.117 | 0.172 | 0.778 | 0.515 | 0.485 | 0.148 | 0.33 | 0.409
2 | CN(CCO)CC[C@H](CSc1ccccc1)Nc1ccc(S(=O)(=O)NC(=O)c2ccc(N3CCC([C@@H](O)c4ccccc4-c4ccc(Cl)cc4)CC3)cc2)cc1S(=O)(=O)C(F)(F)F [AZD4320] + C1CN(CCC1(C(=O)N[C@@H](CCO)C2=CC=C(C=C2)Cl)N)C3=NC=NC4=C3C=CN4 [Capivasertib] (first compound max 1 µM, 7x7, partner max 3 µM) | 1 | 1 | 0.737 | 0.507 | 0.378 | 0.158 | 0.0615 | 0.925 | 0.23 | 1 | 0.879 | 0.986 | 0.0266 | 0.575 | 0.956 | 0.0802 | 0.528 | 0.0865 | 0.285 | 0.443
3 | Cc1c2c(nn1C)CSCc1cc(n(C)n1)CSc1cc(c3ccccc3c1)OCCCc1c(C(=O)O)n(C)c3c-2c(Cl)ccc13 [AZD5991] + Cc1cc2ncnn2cc1Nc1ncc2c(n1)n(C1CCOCC1)c(=O)n2C [AZD7648] (first compound max 1 µM, 7x7, partner max 10 µM) | 1 | 1 | 0.848 | 0.483 | 0.619 | 0.223 | 0.419 | 0.957 | 0.508 | 1 | 0.501 | 0.722 | 0.127 | 0.521 | 1 | 1 | 0.302 | 0.168 | 0.442 | 0.327
4 | CC1(C)CCC(CN2CCN(c3ccc(C(=O)NS(=O)(=O)c4ccc(NCC5CCOCC5)c([N+](=O)[O-])c4)c(Oc4cnc5[nH]ccc5c4)c3)CC2)=C(c2ccc(Cl)cc2)C1 [Venetoclax] + C=CCn1c(=O)c2cnc(Nc3ccc(N4CCN(C)CC4)cc3)nc2n1-c1cccc(C(C)(C)O)n1 [AZD1775] (first compound max 1 µM, partner max 1 µM) | 1 | 1 | 0.776 | 0.747 | 0.907 | 0.311 | 0.63 | 0.538 | 0.946 | 1 | 0.254 | 0.966 | 0.647 | 0.546 | 0.986 | 0.711 | 0.688 | 0.307 | 0.734 | 0.715
5 | COc1cccc(OCCCN)c1-c1cc(Nc2cnc(C#N)cn2)n[nH]1 [Prexasertib] + Cc1cc2ncnn2cc1Nc1ncc2c(n1)n(C1CCOCC1)c(=O)n2C [AZD7648] (first compound max 1 µM, 7x7, partner max 10 µM) | 0.966 | 1 | 0.789 | 0.816 | 0.801 | 0.474 | 0.75 | 0.995 | 1 | 1 | 0.288 | 1 | 0.777 | 0.571 | 1 | 0.441 | 0.702 | 0.465 | 0.664 | 0.735
6 | CCN(CCO)CCCOc1ccc2c(Nc3cc(CC(=O)Nc4cccc(F)c4)[nH]n3)ncnc2c1 [AZD2811] + C[C@@H]1COCCN1C2=NC(=NC(=C2)C3(CC3)[S@](=N)(=O)C)C4=C5C=CNC5=NC=C4 [AZD6738] (first compound max 1 µM, 7x7, partner max 10 µM) | 0.914 | 0.941 | 0.799 | 0.648 | 0.561 | 0.524 | 0.441 | 0.967 | 0.764 | 0.968 | 0.0919 | 0.977 | 0.751 | 0.252 | 1 | 0.485 | 0.492 | 0.368 | 0.621 | 0.583
